Data: article PMC7031696 (Cell chemical biology, 2019)
Like-named read-outs stand apart in the source and are kept apart here.

Columns and labels:
[1] = test system: Plasmodium falciparum 3D7-A10 parasites; assay: Stage specificity assay (8-h exposure of synchronized stages, IC50^8h); type: cell-based; details: for IC50: Plasmodium falciparum
[2] = test system: 3D7-MR4 trophozoite parasite-infected RBCs; assay: Metabolomic profiling (hydrophilic metabolite changes, UHPLC-MS); type: cell-based, Plasmodium falciparum
[3] = test system: asynchronous 3D7-A10 parasite cultures; assay: Standard 72-h exposure asexual blood stage susceptibility assay (IC50^72h); type: cell-based, Plasmodium falciparum; details: Plasmodium falciparum, 3D7, 72 h, read-out: Overall (72hr assay) Mean IC50 (IC50^72h)

Ratio lowest IC50 8hr/IC50 72hr ([1]; 3D7-A10): 2.0
IC50^8h relative to IC50^72h value ([1]; most susceptible stages): 2 fold
IC50 [3]: 30.8 nM
Compound: FC(F)(F)c1ccc(Nc2cc3[nH]c(-c4cccc(C(F)(F)F)c4)nc3cn2)nc1 [MMV675939]
IC50 ([1]; 3D7, read-out: Early rings Mean IC50 (IC50^8h), 8-h exposure 0–8 hr, 3D7-A10, survival at 60 h): 1170 nM
IC50 ([1]; 3D7, read-out: Early trophozoites Mean IC50 (IC50^8h), 8-h exposure 16–24 hr, 3D7-A10, survival at 60 h): 62.9 nM
IC50 ([1]; 3D7, read-out: Late rings Mean IC50 (IC50^8h), 8-h exposure 8–16 hr, 3D7-A10, survival at 60 h): 268 nM
IC50 ([1]; 3D7, read-out: Late trophozoites Mean IC50 (IC50^8h), 8-h exposure 24–32 hr, 3D7-A10, survival at 60 h): 146 nM
IC50 ([1]; 3D7, read-out: Schizonts Mean IC50 (IC50^8h), 8-h exposure 32–40 hr, 3D7-A10, survival at 60 h): 1650 nM
Stage of peak activity (Figure 6) ([1]; period when the parasite was most susceptible (lowest IC50^8h)): early and late trophozoites
Peak Activity (Table S1) ([1]; stage(s) with the lowest IC50^8h): Trophs
changes within the set of metabolites detected (low fold change group) ([2]; 10 × IC50^72h, 2.5 hr, trophozoites): did not induce major changes
Log2(fold changes) 3-phosphoglycerate ([2]; metabolite 3-phosphoglycerate, log2 fold change): -0.0740
Log2(fold changes) 4-Pyridoxic acid ([2]; metabolite 4-Pyridoxic acid, log2 fold change): 0.0934
Log2(fold changes) 4-aminobutyrate ([2]; metabolite 4-aminobutyrate, log2 fold change): -0.0838
Log2(fold changes) 4-phosphopantetheine ([2]; metabolite 4-phosphopantetheine, log2 fold change): 0.0000
Log2(fold changes) 4-phosphopantothenate ([2]; metabolite 4-phosphopantothenate, log2 fold change): -0.1644
Log2(fold changes) 5-aminopentanoic acid ([2]; metabolite 5-aminopentanoic acid, log2 fold change): 0.0000
Log2(fold changes) 5-methyl-THF ([2]; metabolite 5-methyl-THF, log2 fold change): 0.0000
Log2(fold changes) 5-phosphoribosyl-1-pyrophosphate ([2]; metabolite 5-phosphoribosyl-1-pyrophosphate, log2 fold change): 0.0000
Log2(fold changes) 6-phospho-D-gluconate ([2]; metabolite 6-phospho-D-gluconate, log2 fold change): -0.0601
Log2(fold change) HVDD ([2]; metabolite HVDD): 0.0907
Log2(fold change) Hydroxyisocaproic acid ([2]; metabolite Hydroxyisocaproic acid): 0.0000
Log2(fold change) IDP ([2]; metabolite IDP): 0.0000
Log2(fold change) IMP ([2]; metabolite IMP): -0.0368
Log2(fold change) Inositol ([2]; metabolite Inositol): 0.0000
Log2(fold change) Isopentyl-PP ([2]; metabolite Isopentyl-PP): -0.3198
Log2(fold change) L-arginino-succinate ([2]; metabolite L-arginino-succinate): 0.0258
Log2(fold change) LD ([2]; metabolite LD): 0.2379
Log2(fold change) Myristoyl/tetradecanoyl-CoA ([2]; metabolite Myristoyl/tetradecanoyl-CoA): 0.0000
Log2(fold change) N-Acetyl-L-alanine ([2]; metabolite N-Acetyl-L-alanine): 0.0194
Log2(fold change) N-acetyl-L-ornithine ([2]; metabolite N-acetyl-L-ornithine): -0.1313
Log2(fold change) N-acetyl-glucosamine-1/6-phosphate ([2]; metabolite N-acetyl-glucosamine-1/6-phosphate): -0.1343
Log2(fold change) N-acetyl-glutamate ([2]; metabolite N-acetyl-glutamate): -0.1472
Log2(fold change) N-acetyl-glutamine ([2]; metabolite N-acetyl-glutamine): 0.0192
Log2(fold change) N-carbamoyl-L-aspartate ([2]; metabolite N-carbamoyl-L-aspartate): -0.1451
Log2(fold change) NAD+ ([2]; metabolite NAD+): -0.0175
Log2(fold change) NADH ([2]; metabolite NADH): -0.2763
Log2(fold change) NADP+ ([2]; metabolite NADP+): 0.0809
Log2(fold change) NADPH ([2]; metabolite NADPH): -0.4301
Log2(fold change) O-acetyl-L-serine ([2]; metabolite O-acetyl-L-serine): -0.0735
Log2(fold change) Octoluse 8/1P ([2]; metabolite Octoluse 8/1P): -0.1460
Log2(fold change) Octoluse Bisphosphate ([2]; metabolite Octoluse Bisphosphate): -0.0903
Log2(fold change) PD ([2]; metabolite PD): -0.0797
Log2(fold change) PE ([2]; metabolite PE): -0.0211
Log2(fold change) PEE ([2]; metabolite PEE): 0.0917
Log2(fold change) PEEK ([2]; metabolite PEEK): 0.1721
Log2(fold change) PVNF ([2]; metabolite PVNF): 0.1648
Log2(fold change) Pyroglutamic acid ([2]; metabolite Pyroglutamic acid): -0.1915
Log2(fold change) Pyrophosphate ([2]; metabolite Pyrophosphate): 0.0000
Log2(fold change) Ribose-5-phosphate ([2]; metabolite Ribose-5-phosphate): -0.1384
Log2(fold change) S-adenosyl-L-homocysteine ([2]; metabolite S-adenosyl-L-homocysteine): 0.0407
Log2(fold change) S-adenosyl-L-methioninamine ([2]; metabolite S-adenosyl-L-methioninamine): -0.3534
Log2(fold change) S-adenosyl-L-methionine ([2]; metabolite S-adenosyl-L-methionine): 0.0000
Log2(fold change) S-methyl-5'-thioadenosine ([2]; metabolite S-methyl-5'-thioadenosine): 0.0820
Log2(fold change) SD ([2]; metabolite SD): -0.1003
Log2(fold change) SDL ([2]; metabolite SDL): 0.0000
Log2(fold change) SID ([2]; metabolite SID): 0.1202
Log2(fold change) Sedoheptulose bisphosphate ([2]; metabolite Sedoheptulose bisphosphate): -0.2322
Log2(fold change) Thiamine pyrophosphate ([2]; metabolite Thiamine pyrophosphate): 0.0281
Log2(fold changes) UDP-D-glucose ([2]; metabolite UDP-D-glucose, log2 fold change): -0.0394
Log2(fold changes) UDP-D-glucuronate ([2]; metabolite UDP-D-glucuronate, log2 fold change): -0.0296
Log2(fold changes) UDP-N-acetyl-glucosamine ([2]; metabolite UDP-N-acetyl-glucosamine, log2 fold change): -0.1021
Log2(fold changes) UDP ([2]; metabolite UDP, log2 fold change): -0.2552
Log2(fold changes) UMP ([2]; metabolite UMP, log2 fold change): -0.1084
Log2(fold changes) UTP ([2]; metabolite UTP, log2 fold change): 0.0000
Log2(fold change) hydroxyphenylpyruvate ([2]; metabolite hydroxyphenylpyruvate): 0.0000
Log2(fold change) hydroxyproline/Aminolevulinate ([2]; metabolite hydroxyproline/Aminolevulinate): -0.1121
Log2(fold change) hypoxanthine ([2]; metabolite hypoxanthine): -0.1075
Log2(fold change) indole ([2]; metabolite indole): 0.0000
Log2(fold change) inosine ([2]; metabolite inosine): 0.0076
Log2(fold change) isoleucine ([2]; metabolite isoleucine): 0.0000
Log2(fold change) lactate ([2]; metabolite lactate): -0.1204
Log2(fold change) leucine ([2]; metabolite leucine): 0.0000
Log2(fold change) lysine ([2]; metabolite lysine): -0.3554
Log2(fold change) malate ([2]; metabolite malate): -0.1053
Log2(fold change) maleic acid ([2]; metabolite maleic acid): -0.1158
Log2(fold change) methionine ([2]; metabolite methionine): -0.0422
Log2(fold change) myo-inositol ([2]; metabolite myo-inositol): -0.1497
Log2(fold change) nicotinamide mononucleotide ([2]; metabolite nicotinamide mononucleotide): 0.0424
Log2(fold change) nicotinate ([2]; metabolite nicotinate): -0.2143
Log2(fold change) ornithine ([2]; metabolite ornithine): 0.2780
Log2(fold change) orotate ([2]; metabolite orotate): -0.3359
Log2(fold change) orotidine-5'-phosphate ([2]; metabolite orotidine-5'-phosphate): -0.1978
Log2(fold change) oxaloacetate ([2]; metabolite oxaloacetate): -0.2404
Log2(fold change) p-aminobenzoate ([2]; metabolite p-aminobenzoate): 0.0000
Log2(fold change) p-hydroxybenzoate ([2]; metabolite p-hydroxybenzoate): 0.0000
Log2(fold change) pantothenate ([2]; metabolite pantothenate): -0.0579
Log2(fold change) phenylalanine ([2]; metabolite phenylalanine): -0.1115
Log2(fold change) phenylpyruvate ([2]; metabolite phenylpyruvate): 0.0000
Log2(fold change) phosphoenolpyruvate ([2]; metabolite phosphoenolpyruvate): 0.0011
Log2(fold change) prephenate ([2]; metabolite prephenate): -0.0728
Log2(fold change) proline ([2]; metabolite proline): -0.1132
Log2(fold change) pyridoxine ([2]; metabolite pyridoxine): 0.1122
Log2(fold change) pyruvate ([2]; metabolite pyruvate): -0.1845
Log2(fold change) riboflavin ([2]; metabolite riboflavin): 0.2197
Log2(fold change) ribose ([2]; metabolite ribose): -0.0488
Log2(fold change) ribose-phosphate ([2]; metabolite ribose-phosphate): -0.3090
Log2(fold change) ribulose-5-phosphate ([2]; metabolite ribulose-5-phosphate): -0.1779
Log2(fold change) serine ([2]; metabolite serine): -0.0132
Log2(fold change) sn-glycerol-3-phosphate ([2]; metabolite sn-glycerol-3-phosphate): -0.0322
Log2(fold change) succinate/Methylmalonic acid ([2]; metabolite succinate/Methylmalonic acid): 0.0214
Log2(fold change) succinyl-CoA/methylmalonyl-CoA ([2]; metabolite succinyl-CoA/methylmalonyl-CoA): 0.0000
Log2(fold change) taurine ([2]; metabolite taurine): -0.5626
Log2(fold change) thiamine ([2]; metabolite thiamine): -0.2223
Log2(fold change) threonine/homoserine ([2]; metabolite threonine/homoserine): -0.0861
Log2(fold change) thymidine ([2]; metabolite thymidine): 0.0000
Log2(fold changes) thymine ([2]; metabolite thymine, log2 fold change): 0.0000
Log2(fold changes) trehalose-6-Phosphate ([2]; metabolite trehalose-6-Phosphate, log2 fold change): 0.0000
Log2(fold changes) tryptophan ([2]; metabolite tryptophan, log2 fold change): -0.3649
Log2(fold changes) tyrosine ([2]; metabolite tyrosine, log2 fold change): -0.0724
Log2(fold changes) uridine ([2]; metabolite uridine, log2 fold change): 0.0000
